Experimental data as given in patent publication US20200270309A1, “MALEIMIDE GROUP-MODIFIED ANGIOGENESIS INHIBITOR HM-1 AND USE THEREOF” (NANJING ANJI BIOLOGICAL TECHNOLOGY CO., LTD, priority 2017, published 2020).
Marks after values point to notes of the source that are not given here. Peptide text beside a SMILES is read from it. * marks the point of attachment. X58 = O=C1C=CC(=O)N1c1cccc(CCCCCCCCCCCC(=O)*)c1

Experiments:
HUVECs = test: Transwell migration inhibition on HUVECs; assay type: cell-based, human; conditions: for Inhibition rate (%): HUVEC migration vs blank control; for Cell migration number (Mean ± SD): HUVECs, transwell, 24 h
[1] = system: human retinal capillary endothelial cells (HRCECs); test: MTT proliferation inhibition on HRCECs; assay type: cell-based; conditions: 48 h; for A570 nm-A630 nm: mean±SD
Summary of the method: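 HRCECs seeded at 3.0×10^4 cells/mL, adhered overnight, then exposed to polypeptide for 48 h at 37 °C, 5% CO2. MTT added 4 h, formazan dissolved in DMSO, absorbance 570/630 nm; PIR (%) = 1 − treated/negative control, mean±SD of three independent runs.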

[2] = Half-lives and pharmacokinetic parameters of polypeptides vs HM-1; conditions: in vivo
[3] = system: carrageenan-induced toe swelling; test: Carrageenan-induced toe swelling in rats; assay type: in vivo; conditions: SD rats; for Swelling degree 1 h: 1 h after carrageenan; for Swelling degree 3 h: 3 h after carrageenan; for Swelling degree 5 h: 5 h after carrageenan; for Swelling degree 7 h: 7 h after carrageenan
Summary of the method: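 Paw swelling, in mL, is the post-inflammation minus pre-inflammation volume of the right hind foot, read as overflow liquid when immersed to a pen-marked joint. Treatment was daily injection over 3 d; model group received saline of the same volume.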

[4] = system: corneal neovascularization; test: Corneal neovascularization induced by alkali burn in BALB/c mice; assay type: in vivo; design: Inhibition rate (corneal neovascularization): concentration or dose not given beside the values; conditions: day 14 after alkali burn, vitreous injection once a day for 1 week
[5] = system: xylene-induced ear swelling; test: Xylene-induced mouse ear swelling; assay type: in vivo; conditions: Kunming mice, injected once a day for 5 days; for Inhibition rate (%): xylene-induced ear swelling
Summary of the method: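 Ear pieces punched and weighed 2 h after xylene (0.05 mL, right ear only; left ear as normal) gave swelling degree (right − left weight) and swelling rate (degree/left weight ×100%). Kunming mice received injections daily for 5 consecutive days, xylene applied 1 h after final dose.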

[6] = system: collagen-induced arthritis; test: Mouse collagen-induced arthritis (CIA) animal model; assay type: in vivo; conditions: DBA/1 mice CIA model, dose 4.0 mg/kg, subcutaneous from day 30, n=10
[7] = system: choroidal neovascularization; test: Choroidal neovascularization in rats (laser photocoagulation, FFA); assay type: in vivo; conditions: BN rats
Summary of the method: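 Male BN rats aged 6-8 weeks were given 8 krypton-laser spots around the optic disc (647.1 nm, 350 mW, 50 μm, 0.05 s). Once the model was confirmed, groups of 5 got daily intravitreal compound at 0.05 μM or saline for 1 week. FFA followed at 3, 7, 14 and 28 days after dosing.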

[8] = day 3 after administration, total light spot number was 297, 0.05 μM in the vitreous chamber once a day for 1 week
[9] = day 7 after administration, total light spot number was 186, 0.05 μM in the vitreous chamber once a day for 1 week
[10] = day 14 after administration, total light spot number was 137, 0.05 μM in the vitreous chamber once a day for 1 week
[11] = day 28 after administration, total light spot number was 69, 0.05 μM in the vitreous chamber once a day for 1 week

For `C[C@H](NC(=O)CNC(=O)[C@H](CCCNC(=N)N)NC(=O)CCCCCCCCCCCc1cccc(N2C(=O)C=CC2=O)c1)C(=O)N[C@@H](CC(=O)O)C(=O)N[C@@H](CCCNC(=N)N)C(=O)N[C@@H](C)C(=O)NCC(=O)NCC(=O)NCC(=O)NCC(=O)N[C@@H](CCCNC(=N)N)C(=O)NCC(=O)N[C@@H](CC(=O)O)C(=O)O` [X35] (X58-RGADRAGGGGRGD-OH), the “Inhibition rate (%)” value (HUVECs; dose 0.05 μM) was 42.61%, the “Inhibition rate (%)” value (HUVECs; dose 0.1 μM) was 50.57% and the “Inhibition rate (%)” value (HUVECs; dose 0.2 μM) was 56.96%. For the same compound, the “Cell migration number (Mean ± SD)” value (HUVECs; dose 0.05 μM) was 615.18 ± 57.71, the “Cell migration number (Mean ± SD)” value (HUVECs; dose 0.1 μM) was 529.83 ± 68.02 and the “Cell migration number (Mean ± SD)” value (HUVECs; dose 0.2 μM) was 461.34 ± 66.82. For the same compound, the “Inhibition rate (%)” value ([1]; dose 0.05 μM) was 43.91%*, the “A570 nm-A630 nm” value ([1]; dose 0.05 μM) was 0.7413 ± 0.08995 and the “Inhibition rate (%)” value ([1]; dose 0.1 μM) was 56.72%**. The “A570 nm-A630 nm” value ([1]; dose 0.1 μM) was 0.5720 ± 0.01284, the “Inhibition rate (%)” value ([1]; dose 0.2 μM) was 57.45%* and the “A570 nm-A630 nm” value ([1]; dose 0.2 μM) was 0.5624 ± 0.01279. The AUC(0-inf) [2] was 32000 ± 8090 ng·h/mL, the MRT inf [2] was 57.1 ± 14.2 h and the clearance [2] was 0.522 mL/min/kg. For the same compound, the half-life ([2]; T1/2β (half-life)) was 39.6 ± 0.31 h, the “Swelling degree 1 h” value ([3]; 2.0 mg/kg once a day for 3 d) was 0.25 ± 0.11 mg and the “Swelling degree 3 h” value ([3]; 2.0 mg/kg once a day for 3 d) was 0.38 ± 0.16 mg. For the same compound, the “Swelling degree 5 h” value ([3]; 2.0 mg/kg once a day for 3 d) was 0.38 ± 0.19 mg, the “Swelling degree 7 h” value ([3]; 2.0 mg/kg once a day for 3 d) was 0.33 ± 0.15 mg and the “Swelling degree 1 h” value ([3]; 4.0 mg/kg once a day for 3 d) was 0.23 ± 0.11 mg. The “Swelling degree 3 h” value ([3]; 4.0 mg/kg once a day for 3 d) was 0.36 ± 0.16 mg, the “Swelling degree 5 h” value ([3]; 4.0 mg/kg once a day for 3 d) was 0.44 ± 0.14 mg and the “Swelling degree 7 h” value ([3]; 4.0 mg/kg once a day for 3 d) was 0.32 ± 0.12 mg. The “Inhibition rate (corneal neovascularization)” value [4] was 44.60%, the “MVD (corneal microvessel density)” value [4] was 37.25 ± 4.806 and the “Swelling degree” value ([5]; dose 2 mg/kg, right minus left ear piece weight 2 h after xylene) was 5.59 ± 0.91 mg. For the same compound, the “Inhibition rate (%)” value ([5]; dose 2 mg/kg) was 10.27%, the “Swelling degree (mg)” value ([5]; dose 4 mg/kg, right minus left ear piece weight 2 h after xylene) was 4.78 ± 0.64* mg and the “Inhibition rate (%)” value ([5]; dose 4 mg/kg) was 23.27%. The “Swelling degree (mg)” value ([5]; dose 8 mg/kg, right minus left ear piece weight 2 h after xylene) was 3.48 ± 0.28** mg, the “Inhibition rate (%)” value ([5]; dose 8 mg/kg) was 44.14% and the “Joint swelling degree (mm)” value [6] was 0.76 ± 0.13 mm. The “Left and right paw swelling degree (mm)” value [6] was 0.85 ± 0.14 mm, the Clinical score ([6]; highest score 16) was 8.78 ± 1.23 and the “CNV Incidence (%)” value [7, 8] was 52.19%. The “Leakage Light spot number” value [7, 8] was 155, the “CNV Incidence (%)” value [7, 9] was 47.85% and the “Leakage Light spot number” value [7, 9] was 89. For the same compound, the “CNV Incidence (%)” value [7, 10] was 46.72%, the “Leakage Light spot number” value [7, 10] was 64 and the “CNV Incidence (%)” value [7, 11] was 44.93%. The “Leakage Light spot number” value [7, 11] was 31.
